Measurements as given in the NIST ThermoML archive (doi:10.1021/je800727f).

Conditions: for viscosity / mass density: 101.33 kPa, Liquid; for viscosity: dissipative quartz crystal microbalance from KSV (QCMZ500)

C[n+]1ccn(CCO)c1.F[B-](F)(F)F [1-(2-hydroxyethyl)-3-methylimidazolium tetrafluoroborate]
Conditions	mass density [kg/m3]	surface tension liquid-gas [mN/m]	viscosity [mPa·s]
293.15 K	–	–	1554
298.15 K	1308	–	974
303.15 K	1304.7	–	–
308.15 K	1301.4	–	477
313.15 K	1296.1	–	–
318.15 K	1294.7	–	257
323.15 K	1291.5	–	–
328.15 K	1288.3	–	156
572 K	–	64.7	–
577.78 K	–	64.6	–
587.55 K	–	64	–
597.81 K	–	63.5	–
607.58 K	–	62.7	–
626.51 K	–	61.7	–
645.35 K	–	59.9	–
665.48 K	–	59.1	–
684.42 K	–	57.5	–
703.95 K	–	56.4	–
725.28 K	–	55.4	–
743.71 K	–	53.6	–

CCCCCCCC[n+]1ccn(C)c1.F[B-](F)(F)F [1-methyl-3-octylimidazolium tetrafluoroborate]
Conditions	mass density [kg/m3]	surface tension liquid-gas [mN/m]	viscosity [mPa·s]
293.15 K	–	–	413
298.15 K	1100.5	–	325
308.15 K	1093.7	–	205
318.15 K	1087.1	–	129
328.15 K	1080.5	–	86
570.95 K	–	32.7	–
586.35 K	–	32.4	–
606.62 K	–	31.3	–
625.26 K	–	30.2	–
646.29 K	–	28.1	–
665.98 K	–	27.7	–
685.41 K	–	27.2	–
704.75 K	–	25.3	–
724.78 K	–	24.5	–
743.71 K	–	23.7	–
